In brackets after ≈: the same amount, converted by molar mass. Activity calls are given as the source filed them. The rule behind the calls is not given here. Bounds are passed on as bounds.

Data set [1] has as its system Plasmodium falciparum. As to the kind of experiment: Antiplasmodial activity against multidrug resistant Plasmodium falciparum K1 incubated for 72 hrs by microplate reader assay. Type of data set: functional, organism-based. The conditions noted are these: K1, 72 h.
The next data set is described as follows: physchem. The conditions noted are these: buffer, pH 7.4.
The subject of data set [2] is Plasmodium falciparum. As to the kind of experiment: microbe, parasite or virus in culture. The conditions noted are these: NF54, 72 h.
Data set [3] relates to Plasmodium falciparum. Briefly: Antiplasmodial activity against early stage (I to III) Plasmodium falciparum incubated for 48 hrs by bioluminescence assay. Type of data set: functional, organism-based.
Another data set has as its system HepG2. As to the kind of experiment: Cytotoxicity against human HepG2 cells after 48 hrs by CellTiter Glo assay. The format is toxicity, cell-based. The note with it: hepg2, 48 h. Background: In ATP-based viability assays light output follows the ATP content of the culture.
Data set [4] in a line: Cytotoxicity against CHO cells measured after 48 hrs by MTT assay. The note with it: Chinese hamster. (In general: Tetrazolium assays rely on reduction of a dye to a coloured formazan, in cell work by metabolically active cells.)
Data set [5] deals with Voltage-gated inwardly rectifying potassium channel KCNH2 (Homo sapiens, UniProt Q12809). As to the kind of experiment: Inhibition of human ERG expressed in CHO-K1 cells by Q-patch clamp assay.
Voltage-gated inwardly rectifying potassium channel KCNH2, sequence (Q12809 whole entry): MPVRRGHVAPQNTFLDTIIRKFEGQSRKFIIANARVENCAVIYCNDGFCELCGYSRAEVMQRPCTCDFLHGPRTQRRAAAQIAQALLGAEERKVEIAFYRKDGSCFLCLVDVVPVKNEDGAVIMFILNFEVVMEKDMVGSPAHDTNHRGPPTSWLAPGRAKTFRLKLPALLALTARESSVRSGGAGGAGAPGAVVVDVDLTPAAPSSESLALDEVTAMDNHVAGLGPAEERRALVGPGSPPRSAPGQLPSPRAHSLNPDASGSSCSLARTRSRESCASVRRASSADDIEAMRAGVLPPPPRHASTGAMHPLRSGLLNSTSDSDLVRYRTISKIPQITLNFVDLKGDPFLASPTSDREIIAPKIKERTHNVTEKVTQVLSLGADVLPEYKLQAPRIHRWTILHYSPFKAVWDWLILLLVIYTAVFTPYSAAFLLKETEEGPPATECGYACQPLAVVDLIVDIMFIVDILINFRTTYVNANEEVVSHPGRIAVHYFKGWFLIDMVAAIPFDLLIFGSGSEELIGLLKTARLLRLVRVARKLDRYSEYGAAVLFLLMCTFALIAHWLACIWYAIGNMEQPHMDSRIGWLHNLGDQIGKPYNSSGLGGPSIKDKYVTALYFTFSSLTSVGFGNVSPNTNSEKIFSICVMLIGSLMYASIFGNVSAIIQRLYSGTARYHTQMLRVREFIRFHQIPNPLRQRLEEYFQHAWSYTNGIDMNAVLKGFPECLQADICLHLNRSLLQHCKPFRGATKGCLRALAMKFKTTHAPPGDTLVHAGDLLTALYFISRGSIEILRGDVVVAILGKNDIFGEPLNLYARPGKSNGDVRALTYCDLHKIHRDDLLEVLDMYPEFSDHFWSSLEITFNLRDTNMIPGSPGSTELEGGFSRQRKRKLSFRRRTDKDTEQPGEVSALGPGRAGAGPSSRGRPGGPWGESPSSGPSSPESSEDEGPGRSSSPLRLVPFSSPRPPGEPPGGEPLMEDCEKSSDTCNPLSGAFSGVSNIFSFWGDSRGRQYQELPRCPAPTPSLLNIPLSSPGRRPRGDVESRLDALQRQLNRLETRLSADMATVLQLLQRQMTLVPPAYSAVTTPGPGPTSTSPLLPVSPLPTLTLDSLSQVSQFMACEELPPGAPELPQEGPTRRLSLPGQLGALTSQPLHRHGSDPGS
Data set [6] can be described thus: Selectivity index, ratio of IC50 for Plasmodium falciparum NF54 to IC50 for CHO cells. The note with it: hamster.
In another data set the test system is Hemozoin. Briefly: Inhibition of Beta-hematin in Plasmodium falciparum NF54 assessed as hemozoin formation after 36 hrs by flow cytometry analysis. On the technique in general: A flow cytometer gives signals particle by particle.

As to `C[C@@H]1CN=C(c2ccc(CCN3CCC(Nc4nc5ccccc5n4Cc4ccc(C#N)cc4)CC3)cc2)O1`, the 50% inhibitory concentration (IC50) (usually the concentration that inhibits the measured activity by half) came out at 0.352 µM in the data set on Plasmodium falciparum [1] and 0.104 µM in the data set on Plasmodium falciparum [2]. The solubility (kinetic) (usually solubility judged after dilution from a stock solution rather than from solid) at 2 h in the data set “physchem” was 60 µM (≈ 31.1 µg/mL).

Regarding `Cn1c(NC2CCN(CCc3ccc(-c4nc(C(C)(C)C)no4)cc3)CC2)nc2ccccc21`, the IC50 was 0.3 µM with Plasmodium falciparum [1], 1.18 µM in the data set on Plasmodium falciparum [3] and 0.064 µM with Plasmodium falciparum [2]. The Activity entry in the data set with HepG2 is “Non-Toxic”. In data set [4] (cho), the half-inhibitory concentration (IC50) at 48 h was 4.69 µM.

Regarding `COC(=O)c1ccc2c(c1)nc(NC1CCN(CCc3ccc(-c4nc(C)no4)cc3)CC1)n2C`, the half-inhibitory concentration (IC50) in [5] was 0.49 µM; with Plasmodium falciparum [2], 0.496 µM. Also, the kinetic solubility at 2 h in “physchem” stood at 120 µM (≈ 56.9 µg/mL).

As to `N#Cc1ccc(Cn2c(NC3CCN(CCc4ccc(-c5nc(C(F)(F)F)no5)cc4)CC3)nc3ccccc32)cc1`, the half-inhibitory concentration (IC50) in the data set with Plasmodium falciparum [1] turned out to be 0.027 µM; in data set [5] it was 0.47 µM; in the data set with Plasmodium falciparum [2] it was 0.022 µM. The compound further returned a half-maximal inhibitory concentration (IC50) at 48 h in data set [4] (CHO cells) of 0.75 µM. The selectivity ratio in [6] was 34. The inhibition entry in the data set on Hemozoin was “Active”. In “physchem”, the kinetic solubility at 2 h was determined as 10 µM (≈ 5.72 µg/mL).

Consider `Cc1noc(-c2ccc(CCN3CCC(Nc4nc5ccccc5n4Cc4ccc(C(F)(F)F)nc4)CC3)cc2)n1`, for which the half-maximal inhibitory concentration (IC50) with Plasmodium falciparum [1] turned out to be 0.173 µM; in data set [5] it was 0.25 µM; in the data set with Plasmodium falciparum [2] it was 0.044 µM. Moreover, the IC50 at 48 h in data set [4] (CHO cells) was found to be 5.63 µM. Besides, the selectivity ratio in [6] is 128. The inhibition entry in the data set with Hemozoin is “Active”. The same compound showed a solubility (kinetic) at 2 h in the data set “physchem” of 40 µM (≈ 22.5 µg/mL).

Take `Cc1noc(-c2ccc(CCN3CCC(Nc4nc5ccccc5n4Cc4ccc(C#N)cc4)CC3)cc2)n1`: the 50% inhibitory concentration (IC50) came to 0.178 µM in the data set on Plasmodium falciparum [1] and 0.097 µM in the data set with Plasmodium falciparum [2]. Besides, the midpoint of inhibition in data set [4] (cho), the IC50 at 48 h, lay at 19.7 µM.

As to `Cn1c(NC2CCN(CCc3ccc(C(=O)O)cc3)CC2)nc2ccccc21`, the kinetic solubility at 2 h in “physchem” was found to be 160 µM (≈ 60.6 µg/mL). The IC50 with Plasmodium falciparum [2] is greater than 6 µM.

`Cc1noc(-c2ccc(CCN3CCC(Nc4nc5cc(Br)ccc5n4C)CC3)cc2)n1` returned a solubility (kinetic) at 2 h in the data set “physchem” of 80 µM (≈ 39.6 µg/mL). This compound returned an IC50 with Plasmodium falciparum [2] of 0.72 µM.

Take `Cc1noc(-c2ccc(CCN3CCC(Nc4nc5ccccc5n4CC4CCC(F)(F)CC4)CC3)cc2)n1`: the solubility (kinetic) at 2 h in the data set “physchem” is 20 µM (≈ 10.7 µg/mL). The same compound came in with an IC50 in the data set with Plasmodium falciparum [2] of 0.46 µM.

For `CCN(CC)Cc1cc(Nc2ccnc3cc(Cl)ccc23)ccc1O` [AMODIAQUINE], the IC50 in the data set with Hemozoin stood at 10 µM.

`C[C@H]1COC(c2ccc(CCN3CCC(Nc4nc5ccccc5n4Cc4ccc(C#N)cc4)CC3)cc2)=N1`: the IC50 in the data set on Plasmodium falciparum [1] is 0.263 µM; in the data set with Plasmodium falciparum [2], 0.074 µM. In data set [4] (CHO cells), this compound yielded a concentration for half-maximal inhibition (IC50) at 48 h of 38.9 µM. Moreover, in data set [6], the selectivity ratio amounted to 525. This compound displayed a solubility (kinetic) at 2 h in the data set “physchem” of 20 µM (≈ 10.4 µg/mL).

Turning to `CN(C)Cc1noc(-c2ccc(CCN3CCC(Nc4nc5ccccc5n4C)CC3)cc2)n1`, in the data set “physchem”, the solubility (kinetic) at 2 h is 120 µM (≈ 55.2 µg/mL). The IC50 with Plasmodium falciparum [2] was determined as 0.831 µM.

For `Cn1c(NC2CCN(CCc3ccc(C(=O)N4CCC(O)C4)cc3)CC2)nc2ccccc21` (stereo unspecified), the solubility (kinetic) at 2 h in “physchem” came to 80 µM (≈ 35.8 µg/mL). Also, the IC50 in the data set with Plasmodium falciparum [2] is 3.99 µM.

For `Cc1noc(-c2ccc(CCN3CCC(Nc4nc5ccccc5n4CC4CCCCC4)CC3)cc2)n1`, the figures for the half-maximal inhibitory concentration (IC50) (in the data set on Plasmodium falciparum [1]; in data set [5]; in the data set with Plasmodium falciparum [2]) were 0.156 µM, 0.89 µM and 0.093 µM, respectively. In addition, in data set [4] (CHO cells), the 50% inhibitory concentration (IC50) at 48 h was 44.4 µM. Moreover, in data set [6], the selectivity ratio turned out to be 477. The same compound yielded a kinetic solubility at 2 h in “physchem” of 80 µM (≈ 39.9 µg/mL).

With `CCN(CC)CCCC(C)Nc1ccnc2cc(Cl)ccc12` (stereo unspecified) [CHLOROQUINE], the concentration for half-maximal inhibition (IC50) in the data set with Hemozoin stood at 22 µM.
